Laboratory results published in the NIST ThermoML archive (doi:10.1016/j.jct.2015.08.014).

Assay: xn = mol fraction of the nth substance listed
Settings: 100 kPa, Liquid; for electrical conductivity: Alternating current cell with electrodes; for mass density: Vibrating tube method; for viscosity: Capillary tube (Ostwald / Ubbelohde) method

CCCC[N+]1(C)CCCC1.N#CN=C=[N-] [1-butyl-1-methylpyrrolidinium dicyanamide] + O=C1CCCO1
Settings | electrical conductivity [S/m]
313.15 K, Frequency=0.00694444 MHz, x1 = 0.4985 | 2.88
313.15 K, Frequency=0.00694444 MHz, x1 = 0.6954 | 2.43
313.15 K, Frequency=0.00694444 MHz, x1 = 0.9013 | 2.09
313.15 K, Frequency=0.00694444 MHz, x1 = 1 | 2
313.15 K, Frequency=0.0075 MHz, x1 = 0.0463 | 1.79
313.15 K, Frequency=0.0075 MHz, x1 = 0.0987 | 2.73
313.15 K, Frequency=0.0075 MHz, x1 = 0.1449 | 3.13
313.15 K, Frequency=0.0075 MHz, x1 = 0.1859 | 3.37
313.15 K, Frequency=0.0075 MHz, x1 = 0.2493 | 3.36
313.15 K, Frequency=0.0075 MHz, x1 = 0.3029 | 3.321
313.15 K, Frequency=0.0075 MHz, x1 = 0.3845 | 3.16
313.15 K, Frequency=0.0075 MHz, x1 = 0.4985 | 2.88
313.15 K, Frequency=0.0075 MHz, x1 = 0.6954 | 2.43
313.15 K, Frequency=0.0075 MHz, x1 = 0.9013 | 2.09
313.15 K, Frequency=0.0075 MHz, x1 = 1 | 2
313.15 K, Frequency=0.008 MHz, x1 = 0.0463 | 1.79
313.15 K, Frequency=0.008 MHz, x1 = 0.0987 | 2.73
313.15 K, Frequency=0.008 MHz, x1 = 0.1449 | 3.13
313.15 K, Frequency=0.008 MHz, x1 = 0.1859 | 3.37
313.15 K, Frequency=0.008 MHz, x1 = 0.2493 | 3.36
313.15 K, Frequency=0.008 MHz, x1 = 0.3029 | 3.321
313.15 K, Frequency=0.008 MHz, x1 = 0.3845 | 3.16
313.15 K, Frequency=0.008 MHz, x1 = 0.4985 | 2.88
313.15 K, Frequency=0.008 MHz, x1 = 0.6954 | 2.43
313.15 K, Frequency=0.008 MHz, x1 = 0.9013 | 2.09
313.15 K, Frequency=0.008 MHz, x1 = 1 | 2
313.15 K, Frequency=0.00857143 MHz, x1 = 0.0463 | 1.79
313.15 K, Frequency=0.00857143 MHz, x1 = 0.0987 | 2.73
313.15 K, Frequency=0.00857143 MHz, x1 = 0.1449 | 3.13
313.15 K, Frequency=0.00857143 MHz, x1 = 0.1859 | 3.37
313.15 K, Frequency=0.00857143 MHz, x1 = 0.2493 | 3.36
313.15 K, Frequency=0.00857143 MHz, x1 = 0.3029 | 3.321
313.15 K, Frequency=0.00857143 MHz, x1 = 0.3845 | 3.16
313.15 K, Frequency=0.00857143 MHz, x1 = 0.4985 | 2.88
313.15 K, Frequency=0.00857143 MHz, x1 = 0.6954 | 2.43
313.15 K, Frequency=0.00857143 MHz, x1 = 0.9013 | 2.09
313.15 K, Frequency=0.00857143 MHz, x1 = 1 | 2
313.15 K, Frequency=0.00892857 MHz, x1 = 0.0463 | 1.79
313.15 K, Frequency=0.00892857 MHz, x1 = 0.0987 | 2.73
313.15 K, Frequency=0.00892857 MHz, x1 = 0.1449 | 3.13
313.15 K, Frequency=0.00892857 MHz, x1 = 0.1859 | 3.37
313.15 K, Frequency=0.00892857 MHz, x1 = 0.2493 | 3.36
313.15 K, Frequency=0.00892857 MHz, x1 = 0.3029 | 3.321
313.15 K, Frequency=0.00892857 MHz, x1 = 0.3845 | 3.16
313.15 K, Frequency=0.00892857 MHz, x1 = 0.4985 | 2.88
313.15 K, Frequency=0.00892857 MHz, x1 = 0.6954 | 2.43
313.15 K, Frequency=0.00892857 MHz, x1 = 0.9013 | 2.09
313.15 K, Frequency=0.00892857 MHz, x1 = 1 | 2
313.15 K, Frequency=0.00961538 MHz, x1 = 0.0463 | 1.79
313.15 K, Frequency=0.00961538 MHz, x1 = 0.0987 | 2.73
313.15 K, Frequency=0.00961538 MHz, x1 = 0.1449 | 3.13
313.15 K, Frequency=0.00961538 MHz, x1 = 0.1859 | 3.37
313.15 K, Frequency=0.00961538 MHz, x1 = 0.2493 | 3.36
313.15 K, Frequency=0.00961538 MHz, x1 = 0.3029 | 3.322
313.15 K, Frequency=0.00961538 MHz, x1 = 0.3845 | 3.16
313.15 K, Frequency=0.00961538 MHz, x1 = 0.4985 | 2.88
313.15 K, Frequency=0.00961538 MHz, x1 = 0.6954 | 2.43
313.15 K, Frequency=0.00961538 MHz, x1 = 0.9013 | 2.09
313.15 K, Frequency=0.00961538 MHz, x1 = 1 | 2
313.15 K, Frequency=0.01 MHz, x1 = 0.0463 | 1.79
313.15 K, Frequency=0.01 MHz, x1 = 0.0987 | 2.73
313.15 K, Frequency=0.01 MHz, x1 = 0.1449 | 3.13
313.15 K, Frequency=0.01 MHz, x1 = 0.1859 | 3.37
313.15 K, Frequency=0.01 MHz, x1 = 0.2493 | 3.36
313.15 K, Frequency=0.01 MHz, x1 = 0.3029 | 3.322
313.15 K, Frequency=0.01 MHz, x1 = 0.3845 | 3.16
313.15 K, Frequency=0.01 MHz, x1 = 0.4985 | 2.88
313.15 K, Frequency=0.01 MHz, x1 = 0.6954 | 2.43
313.15 K, Frequency=0.01 MHz, x1 = 0.9013 | 2.09
313.15 K, Frequency=0.01 MHz, x1 = 1 | 2
323.15 K, Frequency=0.0005 MHz, x1 = 0.0463 | 1.99
323.15 K, Frequency=0.0005 MHz, x1 = 0.0987 | 3.06
323.15 K, Frequency=0.0005 MHz, x1 = 0.1449 | 3.56
323.15 K, Frequency=0.0005 MHz, x1 = 0.1859 | 3.816
323.15 K, Frequency=0.0005 MHz, x1 = 0.2493 | 3.88
323.15 K, Frequency=0.0005 MHz, x1 = 0.3029 | 3.85
323.15 K, Frequency=0.0005 MHz, x1 = 0.3845 | 3.726
323.15 K, Frequency=0.0005 MHz, x1 = 0.4985 | 3.45
323.15 K, Frequency=0.0005 MHz, x1 = 0.6954 | 2.99
323.15 K, Frequency=0.0005 MHz, x1 = 0.9013 | 2.622
323.15 K, Frequency=0.0005 MHz, x1 = 1 | 2.525
323.15 K, Frequency=0.001 MHz, x1 = 0.0463 | 2

Settings | electrical conductivity, 323.15 K [S/m] | mass density, 313.15 K [kg/m3] | viscosity, 323.15 K [mPa·s]
x1 = 0.0463 | 2.01 | – | –
x1 = 0.0987 | 3.08 | 1090.51 | 1.87
x1 = 0.1449 | 3.57 | – | –
x1 = 0.1859 | 3.85 | 1075.67 | 2.58
x1 = 0.2493 | 3.89 | – | –
x1 = 0.3029 | 3.88 | 1059.04 | 3.77
x1 = 0.3845 | 3.74 | – | –
x1 = 0.4985 | 3.46 | 1037.83 | 6.36
x1 = 0.6954 | 2.99 | 1022.16 | 9.69
x1 = 0.9013 | 2.633 | 1009.87 | 13.92
x1 = 1 | 2.529 | 1005.06 | 16.15
